Reference: patent publication US8440710B2, “HSL inhibitors useful in the treatment of diabetes” (Hoffmann-La Roche Inc., priority 2009, dated 2013)
pIC50: −log10 of the molar value.

biological target: T1, human HSL (Homo sapiens, UniProt Q05469); assay: Human Hormone-Sensitive Lipase (HSL) enzyme inhibition assay (colorimetric, DMPT substrate); type: biochemical; settings: human full length HSL-His6, 2,3-dimercapto-1-propanol tributyrate substrate, 37° C. 20 minutes, absorbance at 405 nm; read-out: HSL hum IC50
T1 construct: generate a full length human HSL ORF with a 3′-His6 tag; made in house; host or cells: High 5 insect cells (baculovirus, pFast-BAC)
T1 sequence (Q05469 1-1076): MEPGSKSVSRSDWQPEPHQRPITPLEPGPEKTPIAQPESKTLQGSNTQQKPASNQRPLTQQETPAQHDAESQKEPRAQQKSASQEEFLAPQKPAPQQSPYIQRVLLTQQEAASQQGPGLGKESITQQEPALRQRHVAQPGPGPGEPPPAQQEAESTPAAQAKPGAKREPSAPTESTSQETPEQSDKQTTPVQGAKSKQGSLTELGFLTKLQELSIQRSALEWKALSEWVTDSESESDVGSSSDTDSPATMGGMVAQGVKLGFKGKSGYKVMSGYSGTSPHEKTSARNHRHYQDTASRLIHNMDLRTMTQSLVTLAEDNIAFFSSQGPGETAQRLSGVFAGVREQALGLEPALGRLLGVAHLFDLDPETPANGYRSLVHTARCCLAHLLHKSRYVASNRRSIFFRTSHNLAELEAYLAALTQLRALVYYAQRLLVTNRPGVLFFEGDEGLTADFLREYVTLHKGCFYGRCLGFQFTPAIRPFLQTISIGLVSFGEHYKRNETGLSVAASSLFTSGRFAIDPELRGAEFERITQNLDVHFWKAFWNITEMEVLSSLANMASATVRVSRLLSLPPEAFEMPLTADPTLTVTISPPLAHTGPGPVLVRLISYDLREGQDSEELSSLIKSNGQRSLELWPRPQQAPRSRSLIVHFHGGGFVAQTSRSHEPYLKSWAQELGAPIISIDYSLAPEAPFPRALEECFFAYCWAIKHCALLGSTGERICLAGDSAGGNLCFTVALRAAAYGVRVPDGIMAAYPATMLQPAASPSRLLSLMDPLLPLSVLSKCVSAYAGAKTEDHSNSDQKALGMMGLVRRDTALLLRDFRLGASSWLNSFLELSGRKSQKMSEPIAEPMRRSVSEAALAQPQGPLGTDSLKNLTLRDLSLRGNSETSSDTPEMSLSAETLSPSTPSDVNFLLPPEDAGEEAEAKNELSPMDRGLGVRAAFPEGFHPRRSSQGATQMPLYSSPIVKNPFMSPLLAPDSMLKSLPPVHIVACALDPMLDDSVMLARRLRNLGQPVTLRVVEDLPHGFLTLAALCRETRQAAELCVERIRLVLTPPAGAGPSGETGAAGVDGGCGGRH
Procedure, shortened: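 Full-length human HSL with C-terminal His6, expressed in baculovirus-infected High 5 cells and Ni-NTA purified, was added (15 ug/ml stock) to 1.5 mM DMPT in 100 mM MOPS pH 7.2, 0.2 mg/ml fatty acid-free BSA containing compound. After 20 min at 37 °C, DTNB with SDS/Triton X-100 was added; A405 read after 15 min at RT.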

| Structure (SMILES) | pIC50 |
| --- | --- |
| CC(Oc1ccc(N2CC[C@]3(CC[C@@](O)(C4CC4)CC3)C2=O)cc1)C(F)(F)F (stereo partly drawn) [Example 181, (5α,8α)-8-Cyclopropyl-8-hydroxy-2-[4-(2,2,2-trifluoro-1-methyl-ethoxy)-phenyl]-2-aza-spiro[4.5]decan-1-one] | 7.70 |
| C[C@@H](Oc1ccc(N2CC[C@]3(CC[C@@](O)(C4CC4)CC3)C2=O)cc1)C(F)(F)F [Example 181a, (5α,8α)-8-Cyclopropyl-8-hydroxy-2-[4-((R)-2,2,2-trifluoro-1-methyl-ethoxy)-phenyl]-2-aza-spiro[4.5]decan-1-one] | 7.70 |
| CC[C@]1(O)CC[C@]2(CCN(c3ccc(OS(=O)(=O)C4CC4)cc3)C2=O)CC1 [Example 183, 4-((5α,8α)-8-ethyl-8-hydroxy-1-oxo-2-aza-spiro[4.5]decan-2-yl)phenyl cyclopropanesulfonate] | 7.15 |
| CCC[C@]1(O)CC[C@]2(CCN(c3ccc(OC(C)C)cc3)C2=O)CC1 [Example 184, (5α,8α)-8-Hydroxy-2-(4-isopropoxyphenyl)-8-propyl-2-aza-spiro[4.5]decan-1-one] | 7.70 |
| CCC[C@]1(O)CC[C@]2(CCN(c3ccc(S(=O)(=O)CC)cc3)C2=O)CC1 [Example 187, (5α,8α)-2-(4-Ethanesulfonyl-phenyl)-8-hydroxy-8-propyl-2-aza-spiro[4.5]decan-1-one] | 6.19 |
| CCCC[C@]1(O)CC[C@]2(CCN(c3ccc([C@@H](O)C(F)(F)F)cc3)C2=O)CC1 [Example 190, (5α,8α)-8-butyl-8-hydroxy-2-(4-((R)-2,2,2-trifluoro-1-hydroxyethyl)phenyl)-2-aza-spiro[4.5]decan-1-one] | 8.00 |
| CCC[C@]1(O)CC[C@]2(CCN(c3ccc(C(O)C(F)F)cc3)C2=O)CC1 (stereo partly drawn) [Example 195, (5α,8α)-2-(4-(2,2-difluoro-1-hydroxyethyl)phenyl)-8-hydroxy-8-propyl-2-aza-spiro[4.5]decan-1-one] | 6.96 |
| CC(C)Oc1ccc(N2CC[C@]3(CC[C@@](O)(C(C)C)CC3)C2=O)cc1 [Example 196, (5α,8α)-8-hydroxy-2-(4-isopropoxyphenyl)-8-isopropyl-2-aza-spiro[4.5]decan-1-one] | 8.00 |
| CC(C)Oc1ccc(N2CC[C@]3(CC[C@@](O)(C4CCCC4)CC3)C2=O)cc1 [Example 198, (5α,8α)-8-cyclopentyl-8-hydroxy-2-(4-isopropoxyphenyl)-2-aza-spiro[4.5]decan-1-one] | 8.00 |
| O=C1N(c2ccc([C@@H](O)C(F)(F)F)cc2)CC[C@]12CC[C@@](O)(C1CC1)CC2 [Example 201, (5α,8α)-8-cyclopropyl-8-hydroxy-2-(4-((R)-2,2,2-trifluoro-1-hydroxyethyl)phenyl)-2-aza-spiro[4.5]decan-1-one] | 7.30 |
| O=C1N(c2ccc([C@@H](O)C(F)(F)F)cc2)CC[C@]12CC[C@@](O)(C1CCCC1)CC2 [Example 202, (5α,8α)-8-cyclopentyl-8-hydroxy-2-(4-((R)-2,2,2-trifluoro-1-hydroxyethyl)phenyl)-2-aza-spiro[4.5]decan-1-one] | 8.00 |
| CC(C)c1ccc(N2CC[C@]3(CC[C@@](O)(C(C)C)CC3)C2=O)cc1 [Example 203, (5α,8α)-8-hydroxy-8-isopropyl-2-(4-isopropylphenyl)-2-aza-spiro[4.5]decan-1-one] | 8.00 |
| CC(C)Oc1ccc(N2CC[C@]3(CC[C@@](O)(c4ccccc4)CC3)C2=O)cc1 [Example 206, (5α,8α)-8-hydroxy-2-(4-isopropoxyphenyl)-8-phenyl-2-aza-spiro[4.5]decan-1-one] | 8.00 |

More lines, in order of rising pIC50, values ahead:

| pIC50 | Structure (SMILES) |
| --- | --- |
| 7.00 | O=C1N(c2ccc(OS(=O)(=O)C3CC3)cc2)CC[C@]12CC[C@@](O)(C(F)(F)F)CC2 [Example 189, 4-((5α,8α)-8-hydroxy-1-oxo-8-(trifluoromethyl)-2-aza-spiro[4.5]decan-2-yl)phenyl cyclopropanesulfonate] |
| 7.05 | CC(C)[C@]1(O)CC[C@]2(CCN(c3ccc(C(O)C(F)F)cc3)C2=O)CC1 (stereo partly drawn) [Example 207, (5α,8α)-2-(4-(2,2-difluoro-1-hydroxyethyl)phenyl)-8-hydroxy-8-isopropyl-2-aza-spiro[4.5]decan-1-one] |
| 7.10 | CCC[C@]1(O)CC[C@]2(CCN(Cc3ccc(OC(F)(F)F)cc3)C2=O)CC1 [Example 188, (5α,8α)-8-hydroxy-8-propyl-2-(4-(trifluoromethoxy)benzyl)-2-aza-spiro[4.5]decan-1-one] |
| 7.30 | CCC[C@]1(O)CC[C@@]2(CCN(c3ccc(OS(C)(=O)=O)cc3)C2=O)CC1 [Example 185, 4-((5α,8β))-8-hydroxy-1-oxo-8-propyl-2-aza-spiro[4.5]decan-2-yl)phenyl methanesulfonate] |
| 7.30 | CC(C)[C@]1(O)CC[C@]2(CCN(c3ccc(C(O)C(C)(F)F)cc3)C2=O)CC1 (stereo partly drawn) [Example 191, (5α,8α)-2-(4-(2,2-difluoro-1-hydroxypropyl)phenyl)-8-hydroxy-8-isopropyl-2-aza-spiro[4.5]decan-1-one] |
| 7.30 | CCC[C@]1(O)CC[C@]2(CCN(c3ccc(C(O)C(C)(F)F)cc3)C2=O)CC1 (stereo partly drawn) [Example 192, (5α,8α)-2-(4-(2,2-difluoro-1-hydroxypropyl)phenyl)-8-hydroxy-8-propyl-2-aza-spiro[4.5]decan-1-one] |
| 7.52 | CCC[C@]1(O)CC[C@]2(CCN(c3ccc(OS(=O)(=O)C4CC4)cc3)C2=O)CC1 [Example 182, 4-((5α,8α)-8-hydroxy-1-oxo-8-propyl-2-aza-spiro[4.5]decan-2-yl)phenyl cyclopropanesulfonate] |
| 7.52 | CC(F)(F)C(O)c1ccc(N2CC[C@]3(CC[C@@](O)(CCC(F)(F)F)CC3)C2=O)cc1 (stereo partly drawn) [Example 193, (5α,8α)-2-(4-(2,2-difluoro-1-hydroxypropyl)phenyl)-8-hydroxy-8-(3,3,3-trifluoropropyl)-2-aza-spiro[4.5]decan-1-one] |
| 7.52 | CCC[C@]1(O)CC[C@]2(CCN(c3ccc(C(F)(F)F)cc3)C2=O)CC1 [Example 208, (5α,8α)-8-hydroxy-8-propyl-2-(4-(trifluoromethyl)phenyl)-2-aza-spiro[4.5]decan-1-one] |
| 7.52 | CC(C)[C@]1(O)CC[C@]2(CCN(c3ccc(C(F)(F)F)cc3)C2=O)CC1 [Example 209, (5α,8α)-8-hydroxy-8-isopropyl-2-(4-(trifluoromethyl)phenyl)-2-aza-spiro[4.5]decan-1-one] |
| 7.70 | CC[C@]1(O)CC[C@]2(CCN(c3ccc(OC(C)C)cc3)C2=O)CC1 [Example 186, (5α,8α)-8-Ethyl-8-hydroxy-2-(4-isopropoxy-phenyl)-2-aza-spiro[4.5]decan-1-one] |
| 7.70 | O=C1N(c2ccc([C@@H](O)C(F)(F)F)cc2)CC[C@]12CC[C@@](O)(CCC(F)(F)F)CC2 [Example 194, (5α,8α)-8-hydroxy-2-(4-((R)-2,2,2-trifluoro-1-hydroxyethyl)phenyl)-8-(3,3,3-trifluoropropyl)-2-aza-spiro[4.5]decan-1-one] |
| 7.70 | CC(C)Oc1ccc(N2CC[C@]3(CC[C@@](O)(C4CC4)CC3)C2=O)cc1 [Example 197, (5α,8α)-8-cyclopropyl-8-hydroxy-2-(4-isopropoxyphenyl)-2-aza-spiro[4.5]decan-1-one] |
| 7.70 | O=C1N(c2ccc([C@@H](O)C(F)(F)F)cc2)CC[C@]12CC[C@@](O)(C1CCC1)CC2 [Example 200, (5α,8α)-8-cyclobutyl-8-hydroxy-2-(4-((R)-2,2,2-trifluoro-1-hydroxyethyl)phenyl)-2-aza-spiro[4.5]decan-1-one] |
| 7.70 | CCC[C@]1(O)CC[C@]2(CCN(c3ccc(C(C)C)cc3)C2=O)CC1 [Example 204, (5α,8α)-8-hydroxy-2-(4-isopropylphenyl)-8-propyl-2-aza-spiro[4.5]decan-1-one] |
| 8.00 | CC(C)C[C@]1(O)CC[C@]2(CCN(c3ccc(OC(C)C)cc3)C2=O)CC1 [Example 199, (5α,8α)-8-hydroxy-8-isobutyl-2-(4-isopropoxyphenyl)-2-aza-spiro[4.5]decan-1-one] |
| 8.00 | CC(C)c1ccc(N2CC[C@]3(CC[C@@](O)(c4ccccc4)CC3)C2=O)cc1 [Example 205, (5α,8α)-8-hydroxy-2-(4-isopropylphenyl)-8-phenyl-2-aza-spiro[4.5]decan-1-one] |
